# Assay results as given in patent publication EP2058315A1, “1H-Furo[3,2-C]Pyrazoles active as aurora kinase inhibitors” (Nerviano Medical Sciences S.r.l., priority 2007, dated 2009).
# Biological target: T1, Aurora-2 (Homo sapiens, UniProt O14965)
# T1 sequence (O14965 1-403): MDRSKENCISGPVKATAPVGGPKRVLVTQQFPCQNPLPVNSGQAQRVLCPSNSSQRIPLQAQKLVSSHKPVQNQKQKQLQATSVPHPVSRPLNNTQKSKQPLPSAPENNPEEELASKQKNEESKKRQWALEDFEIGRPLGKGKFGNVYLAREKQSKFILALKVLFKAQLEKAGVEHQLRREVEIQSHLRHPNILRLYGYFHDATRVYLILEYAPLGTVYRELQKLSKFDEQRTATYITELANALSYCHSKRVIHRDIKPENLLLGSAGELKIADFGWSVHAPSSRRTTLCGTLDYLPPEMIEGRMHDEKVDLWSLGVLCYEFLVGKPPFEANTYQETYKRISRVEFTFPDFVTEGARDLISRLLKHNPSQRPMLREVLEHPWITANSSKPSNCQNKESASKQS
# Experiment: Inhibition assay of Aurora-2 activity (SPA technology)
# Type: biochemical
# Settings: screened according to the methods of the pharmacology section; read-out: IC50values for Aur2 inhibition
# Experimental: The inhibiting activity and the potency of selected compounds is determined through a method of assay based on the use of the SPA technology (Amersham Pharmacia Biotech).
# The assay consists of the transfer of radioactivity labelled phosphate moiety by the kinase to a biotinylated substrate. The resulting 33P-labelled biotinylated product is allowed to bind to streptavidin-coated SPA beads (biotin capacity 130 pmol/mg), and light emitted was measured in a scintillation counter.
# Kinase reaction: 8 µM biotinylated peptide (4 repeats of LRRWSLG, commercially available from Sigma, catalogue no. L-3523), 10 µM ATP (0.5 uCi P^33γ-ATP), 7.5 ng Aurora 2, inhibitor in a final volume of 30 µl buffer (HEPES 50 mM pH 7.0, MgCl2 10 mM, 1 mM DTT, 0.2 mg/mL BSA, 3 µM orthovanadate) were added to each well of a 96 U bottom well plate. After 60 minutes at room temperature incubation, the reaction was stopped and biotinylated peptide captured by adding 100 µl of bead suspension.
# Stratification: 100 µl of CsCl 5 M were added to each well and stood for 4 hours before radioactivity was counted in the Top-Count instrument.
# IC50 determination: inhibitors were tested at different concentrations ranging from 0.0015 to 10 µM. Experimental data were analyzed by the computer program GraphPad Prizm using the four parameter logistic equation: y = bottom+(top-bottom)/(1+10^((logIC50-x)*slope)) where x is the logarithm of the inhibitor concentration, y is the response; y starts at bottom and goes to top with a sigmoid shape. Ki calculation: Experimental method: Reaction was carried out in buffer (10 mM Tris, pH 7.5, 10 mM MgCl2, 0.2 mg/mL BSA, 7.5 mM DTT) containing 3.7 nM enzyme, histone and ATP (constant ratio of cold/labeled ATP 1/3000). The reaction was stopped with EDTA and the substrate captured on phosphomembrane (Multiscreen 96 well plates from Millipore). After extensive washing, the multiscreen plates were read on a top counter. Control (time zero) for each ATP and histone concentrations was measured.
row,Structure (SMILES),IC50
1,"O=C(Nc1n[nH]c2cc(C(=O)NC3(c4ccccc4)CC3)oc12)c1ccc(N2CCOCC2)cc1 [Compound 7, 3-[(4-morpholin-4-ylbenzoyl)amino]-N-(1-phenylcyclopropyl)-1H-furo[3,2-c]pyrazole-5-carboxamide]",< 10 nM
2,"CC(C)(NC(=O)c1cc2[nH]nc(NC(=O)c3ccco3)c2o1)c1ccccc1 [Compound 28, 3-(2-furoylamino)-N-(1-methyl-1-phenylethyl)-1H-furo[3,2-c]pyrazole-5-carboxamide]",< 10 nM
3,"Cc1cc(C(=O)Nc2n[nH]c3cc(C(=O)NC(C)(C)c4ccccc4)oc23)n(C)n1 [Compound 38, 3-{[(1,3-dimethyl-1 H-pyrazol-5-yl)carbonyl]amino}-N-(1-methyl-1-phenylethyl)-1H-furo[3,2-c]pyrazole-5-carboxamide]",< 10 nM
4,"CC(C)(NC(=O)c1cc2[nH]nc(NC(=O)c3ccco3)c2o1)c1ccccc1F [Compound 39, N-[1-(2-fluorophenyl)-1-methylethyl]-3-(2-furoylamino)-1H-furo[3,2-c]pyrazole-5-carboxamide]",< 10 nM
5,"O=C(Nc1n[nH]c2cc(C(=O)NC3(c4ccccc4)CCCC3)oc12)c1ccco1 [Compound 40, 3-(2-furoylamino)-N-(1-phenylcyclopentyl)-1H-furo[3,2-c]pyrazole-5-carboxamide]",< 10 nM
6,"Cc1occc1C(=O)Nc1n[nH]c2cc(C(=O)NC(C)(C)c3ccccc3)oc12 [Compound 41, 3-[(2-methyl-3-furoyl)amino]-N-(1-methyl-1-phenylethyl)-1H-furo[3,2-c]pyrazole-5-carboxamide]",< 10 nM
7,"Cc1ccsc1C(=O)Nc1n[nH]c2cc(C(=O)NC(C)(C)c3ccccc3)oc12 [Compound 44, N-(1-methyl-1-phenylethyl)-3-{[(3-methyl-2-thienyl)carbonyl]amino}-1H-furo[3,2-c]pyrazole-5-carboxamide]",< 10 nM
8,"Cc1ccc(C(=O)Nc2n[nH]c3cc(C(=O)NC(C)(C)c4ccccc4)oc23)s1 [Compound 45, N-(1-methyl-1-phenylethyl)-3-{[(5-methyl-2-thienyl)carbonyl]amino}-1H-furo[3,2-c]pyrazole-5-carboxamide]",< 10 nM
9,"Cc1csc(C(=O)Nc2n[nH]c3cc(C(=O)NC(C)(C)c4ccccc4)oc23)c1 [Compound 48, N-(1-methyl-1-phenylethyl)-3-{[(4-methyl-2-thienyl)carbonyl]amino}-1H-furo[3,2-c]pyrazole-5-carboxamide]",< 10 nM
10,"Cc1cc(C(=O)Nc2n[nH]c3cc(C(=O)NC(C)(C)c4ccccc4)oc23)c(C)o1 [Compound 50, 3-[(2,5-dimethyl-3-furoyl)amino]-N-(1-methyl-1-phenylethyl)-1H-furo[3,2-c]pyrazole-5-carboxamide]",< 10 nM
11,"Cc1ccc(C(=O)Nc2n[nH]c3cc(C(=O)NC(C)(C)c4ccccc4)oc23)o1 [Compound 51, 3-[(5-methyl-2-furoyl)amino]-N-(1-methyl-1-phenylethyl)-1H-furo[3,2-c]pyrazole-5-carboxamide]",< 10 nM
12,"Cc1ccoc1C(=O)Nc1n[nH]c2cc(C(=O)NC(C)(C)c3ccccc3)oc12 [Compound 53, 3-[(3-methyl-2-furoyl)amino]-N-(1-methyl-1-phenylethyl)-1H-furo[3,2-c]pyrazole-5-carboxamide]",< 10 nM

# Continued, values first:
row,IC50,Structure (SMILES)
1,< 10 nM,"CC(C)(NC(=O)c1cc2[nH]nc(NC(=O)c3ccc(F)cc3)c2o1)c1ccccc1 [Compound 4, 3-[(4-fluorobenzoyl)amino]-N-(1-methyl-1-phenylethyl)-1H-furo[3,2-c]pyrazole-5-carboxamide]"
2,< 10 nM,"CN1CCN(c2ccc(C(=O)Nc3n[nH]c4cc(C(=O)NC(C)(C)c5ccccc5)oc34)cc2)CC1 [Compound 10, N-(1-methyl-1-phenylethyl)-3-{[4-(4-methylpiperazin-1-yl)benzoyl]amino}-1H-furo[3,2-c]pyrazole-5-carboxamide]"
3,< 10 nM,"COc1ccc(C(=O)Nc2n[nH]c3cc(C(=O)NC(C)(C)c4ccccc4)oc23)cc1 [Compound 18, 3-[(4-methoxybenzoyl)amino]-N-(1-methyl-1-phenylethyl)-1H-furo[3,2-c]pyrazole-5-carboxamide]"
4,< 10 nM,"CN1CCN(c2ccc(C(=O)Nc3n[nH]c4cc(C(=O)NC(C)(C)c5cccc(Cl)c5)oc34)cc2)CC1 [Compound 26, N-[1-(3-chlorophenyl)-1-methylethyl]-3-{[4-(4-methylpiperazin-1-yl)benzoyl]amino}-1H-furo[3,2-c]pyrazole-5-carboxamide]"
5,< 10 nM,"CN1CCN(c2ccc(C(=O)Nc3n[nH]c4cc(C(=O)NC5(c6ccccc6)CCCC5)oc34)cc2)CC1 [Compound 27, 3-{[4-(4-methylpiperazin-1-yl)benzoyl]amino}-N-(1-phenylcyclopentyl)-1H-furo[3,2-c]pyrazole-5-carboxamide]"
6,< 10 nM,"CN1CCC(Oc2ccc(C(=O)Nc3n[nH]c4cc(C(=O)NC(C)(C)c5ccccc5)oc34)cc2)CC1 [Compound 30, N-(1-methyl-1-phenylethyl)-3-({4-[(1-methylpiperidin-4-yl)oxy]benzoyl}amino)-1H-furo[3,2-c]pyrazole-5-carboxamide]"
7,< 10 nM,"CN1CCN(Cc2ccc(C(=O)Nc3n[nH]c4cc(C(=O)NC(C)(C)c5ccccc5)oc34)cc2)CC1 [Compound 31, N-(1-methyl-1-phenylethyl)-3-({4-[(4-methylpiperazin-1-yl)methyl]benzoyl}amino)-1H-furo[3,2-c]pyrazole-5-carboxamide]"
8,< 10 nM,"CC(C)(NC(=O)c1cc2[nH]nc(NC(=O)c3ccc(CN4CCOCC4)cc3)c2o1)c1ccccc1 [Compound 32, N-(1-methyl-1-phenylethyl)-3-{[4-(morpholin-4-ylmethyl)benzoyl]amino}-1H-furo[3,2-c]pyrazole-5-carboxamide]"
9,< 10 nM,"Cn1cccc1C(=O)Nc1n[nH]c2cc(C(=O)NC(C)(C)c3ccccc3)oc12 [Compound 33, N-(1-methyl-1-phenylethyl)-3-{[(1-methyl-1H-pyrrol-2-yl)carbonyl]amino}-1H-furo[3,2-c]pyrazole-5-carboxamide]"
10,< 10 nM,"CC(C)(NC(=O)c1cc2[nH]nc(NC(=O)c3ccc(CN4CCCC4)cc3)c2o1)c1ccccc1 [Compound 34, N-(1-methyl-1-phenylethyl)-3-{[4-(pyrrolidin-1-ylmethyl)benzoyl]amino}-1H-furo[3,2-c]pyrazole-5-carboxamide]"
11,< 10 nM,"CC(C)(NC(=O)c1cc2[nH]nc(NC(=O)c3ccc(CN4CCC4)cc3)c2o1)c1ccccc1 [Compound 43, 3-{[4-(azetidin-1-ylmethyl)benzoyl]amino}-N-(1-methyl-1-phenylethyl)-1H-furo[3,2-c]pyrazole-5-carboxamide]"
12,< 10 nM,"Cn1nccc1C(=O)Nc1n[nH]c2cc(C(=O)NC(C)(C)c3ccccc3)oc12 [Compound 55, N-(1-methyl-1-phenylethyl)-3-{[(1-methyl-1H-pyrazol-5-yl)carbonyl]amino}-1H-furo[3,2-c]pyrazole-5-carboxamide]"
13,< 10 nM,"Cn1ccc(C(=O)Nc2n[nH]c3cc(C(=O)NC(C)(C)c4ccccc4)oc23)n1 [Compound 56, N-(1-methyl-1-phenylethyl)-3-{[(1-methyl-1H-pyrazol-3-yl)carbonyl]amino}-1H-furo[3,2-c]pyrazole-5-carboxamide]"
